Legend:
[1] = target: human SCN9A (Nav 1.7) (Homo sapiens, UniProt Q15858); assay: Measurement of Na ion current (Nav 1.7) by automated patch clamp assay in cells stably-expressing human SCN9A; type: cell-based; conditions: compound concentration 10 μmol/L, holding potential inactivating 50% Nav 1.7 channel (around −60 mV); for inhibition at 10 µM: read-out: Inhibitory rate (%) of Na ion current
Protocol: Test 1: Measurement of Na Ion Current in Voltage-Dependent Na Channel Gene Expressed Cell
Nav 1.7 current was measured by automated patch clamp assay using cells stably-expressing human SCN9A.
Cells Stably-Expressing Human SCN9A
Tetracycline-induced cells stably-expressing SCN9A were obtained from ChanTest Corporation. The cells were passaged in Ham's F-12 medium containing 10% fetal bovine serum, 100 units/mL Penicillin-Streptomycin, 0.01 mg/mL Blasticidin, and 0.4 mg/mL Zeocin. The day before the measurement, the medium was replaced with Ham's F-12 medium containing 1 μg/mL tetracycline, 100 μmol/L sodium butyrate, 10% fetal bovine serum, and 100 units/mL Penicillin-Streptomycin. Next day, the Na ion current was measured by automated patch clamp assay.
Electrophysiologic Measurement of Na Ion Current
The Na ion current was measured by automated patch clamp assay using the following extracellular solution and intracellular solution.
Extracellular solution (mmol/L): NaCl 130, MgCl2 2, CaCl2 2, CdCl2 0.1, NiCl2 0.1, Tetraethylammonium-Cl 18, 4-aminopyridine 1, HEPES 10, (adjusting pH 7.4 with NaOH)
Intracellular solution (mmol/L): CsF 120, EGTA 10, NaCl 15, HEPES 10, (adjusting pH 7.2 with CsOH)
The control of the stimulating pulse and the data acquisition were carried out using EPC10 amplifier and Patch Master Software (HEKA). Data were sampled at 10 kHz, and low-pass filtered at 3 kHz. All the measurements were carried out at room temperature. The holding potential was set at a potential inactivating 50% Nav 1.7 channel (around −60 mV), and depolarizing pulse of 20 milliseconds (+10 mV) was given once. […] The inhibitory rate of the Na ion current by the test compounds was calculated according to the following calculating formula with the peak current value generated by the depolarizing pulse. Inhibitory rate of Na ion current (%)=100×[(Peak current value in the absence of Test Compound)−(Peak current value in the presence of Test Compound)]/(Peak current value in the absence of Test Compound) Result: […]

[2] = system: rats streptozotocin (STZ)-induced diabetic peripheral neuropathy model; assay: Analgesic effect (von Frey test) in streptozotocin-induced diabetic peripheral neuropathic pain model; type: in vivo, rat; conditions: orally administered 3 mg/kg, one hour before measuring, male Wistar rats
Protocol: Test 2: Evaluation of Analgesic Effect in Streptozotocin-Induced Diabetic Peripheral Neuropathic Pain Models
Using some typical compounds among the compounds of the present invention, the inhibitory effect for neuropathic pain was determined through the evaluation of analgesic effect in rats streptozotocin (STZ)-induced diabetic peripheral neuropathy model.
The disease animal model was prepared by means of a partially-modified method of Fox et al. (Pain 81, 307-316, 1999). STZ was intraperitoneally administered to 9-week old male Wistar rats in 45 mg/kg of body weight to prepare animal model suffering from diabetic peripheral neuropathy.
The analgesic effect was evaluated by von Frey test. Specifically, mechanical sensitivity was measured by applying hairs (von Frey hair) to the plantar surface of the animal's hind paw, and then the reaction thresholds (50% paw withdrawal thresholds) for the mechanical stimulation was determined by using a formula based on Chaplan et al. (Journal of Neuroscience Methods 53, 55-63, 1994).
One and two days before evaluating the test compounds, the reaction thresholds were measured to obtain an average thereof, and the average value was used as a reference value obtained before the test compounds would be administered. […]
In the evaluation test of the test compounds, the reaction thresholds were measured after administering each test compound. […]

[3] = Metabolic stability test in liver microsome (human); type: in vitro ADME; conditions: NADPH, 37° C., 30 minutes, dealkyl metabolite product (Reference example 5-7) assayed
Protocol: (§1) Test 3: Metabolic Stability Test in Liver Microsome
(§2) To a solution obtained by mixing 4 μL of human or rat liver microsome (produced by Xenotech, 20 mg/mL), 100 μL of 100 mM phosphate buffer solution (pH 7.4), and 74 μL of ultrapure water were added 2 μL of 1 μM DMSO solution of the test compound and further 40 μL of 10 mM aqueous NADPH (produced by Oriental Yeast Co., ltd.), and then the mixture was incubated at 37° C. for 30 minutes. After the incubation, 50 μL of the reaction solution was added to methanol to cease the metabolic reaction. The quenched solution was centrifuged at 4° C. at 4500 rpm for 5 minutes, and the supernatant was filtrated. 100 μL of the supernatant was mixed with 100 μL of 10 mM aqueous ammonium acetate, and the mixture was analyzed with LC (Shimadzu, NexeraX2)-MS (AB Sciex, TripleTOF5600) to determine the amount of the corresponding metabolite product in the mixture.

[4] = Metabolic stability test in liver microsome (rat); type: in vitro ADME; conditions: NADPH, 37° C., 30 minutes, dealkyl metabolite product (Reference example 5-7) assayed
Protocol: as §1, §2

human SCN9A (Nav 1.7), sequence (Q15858 whole entry): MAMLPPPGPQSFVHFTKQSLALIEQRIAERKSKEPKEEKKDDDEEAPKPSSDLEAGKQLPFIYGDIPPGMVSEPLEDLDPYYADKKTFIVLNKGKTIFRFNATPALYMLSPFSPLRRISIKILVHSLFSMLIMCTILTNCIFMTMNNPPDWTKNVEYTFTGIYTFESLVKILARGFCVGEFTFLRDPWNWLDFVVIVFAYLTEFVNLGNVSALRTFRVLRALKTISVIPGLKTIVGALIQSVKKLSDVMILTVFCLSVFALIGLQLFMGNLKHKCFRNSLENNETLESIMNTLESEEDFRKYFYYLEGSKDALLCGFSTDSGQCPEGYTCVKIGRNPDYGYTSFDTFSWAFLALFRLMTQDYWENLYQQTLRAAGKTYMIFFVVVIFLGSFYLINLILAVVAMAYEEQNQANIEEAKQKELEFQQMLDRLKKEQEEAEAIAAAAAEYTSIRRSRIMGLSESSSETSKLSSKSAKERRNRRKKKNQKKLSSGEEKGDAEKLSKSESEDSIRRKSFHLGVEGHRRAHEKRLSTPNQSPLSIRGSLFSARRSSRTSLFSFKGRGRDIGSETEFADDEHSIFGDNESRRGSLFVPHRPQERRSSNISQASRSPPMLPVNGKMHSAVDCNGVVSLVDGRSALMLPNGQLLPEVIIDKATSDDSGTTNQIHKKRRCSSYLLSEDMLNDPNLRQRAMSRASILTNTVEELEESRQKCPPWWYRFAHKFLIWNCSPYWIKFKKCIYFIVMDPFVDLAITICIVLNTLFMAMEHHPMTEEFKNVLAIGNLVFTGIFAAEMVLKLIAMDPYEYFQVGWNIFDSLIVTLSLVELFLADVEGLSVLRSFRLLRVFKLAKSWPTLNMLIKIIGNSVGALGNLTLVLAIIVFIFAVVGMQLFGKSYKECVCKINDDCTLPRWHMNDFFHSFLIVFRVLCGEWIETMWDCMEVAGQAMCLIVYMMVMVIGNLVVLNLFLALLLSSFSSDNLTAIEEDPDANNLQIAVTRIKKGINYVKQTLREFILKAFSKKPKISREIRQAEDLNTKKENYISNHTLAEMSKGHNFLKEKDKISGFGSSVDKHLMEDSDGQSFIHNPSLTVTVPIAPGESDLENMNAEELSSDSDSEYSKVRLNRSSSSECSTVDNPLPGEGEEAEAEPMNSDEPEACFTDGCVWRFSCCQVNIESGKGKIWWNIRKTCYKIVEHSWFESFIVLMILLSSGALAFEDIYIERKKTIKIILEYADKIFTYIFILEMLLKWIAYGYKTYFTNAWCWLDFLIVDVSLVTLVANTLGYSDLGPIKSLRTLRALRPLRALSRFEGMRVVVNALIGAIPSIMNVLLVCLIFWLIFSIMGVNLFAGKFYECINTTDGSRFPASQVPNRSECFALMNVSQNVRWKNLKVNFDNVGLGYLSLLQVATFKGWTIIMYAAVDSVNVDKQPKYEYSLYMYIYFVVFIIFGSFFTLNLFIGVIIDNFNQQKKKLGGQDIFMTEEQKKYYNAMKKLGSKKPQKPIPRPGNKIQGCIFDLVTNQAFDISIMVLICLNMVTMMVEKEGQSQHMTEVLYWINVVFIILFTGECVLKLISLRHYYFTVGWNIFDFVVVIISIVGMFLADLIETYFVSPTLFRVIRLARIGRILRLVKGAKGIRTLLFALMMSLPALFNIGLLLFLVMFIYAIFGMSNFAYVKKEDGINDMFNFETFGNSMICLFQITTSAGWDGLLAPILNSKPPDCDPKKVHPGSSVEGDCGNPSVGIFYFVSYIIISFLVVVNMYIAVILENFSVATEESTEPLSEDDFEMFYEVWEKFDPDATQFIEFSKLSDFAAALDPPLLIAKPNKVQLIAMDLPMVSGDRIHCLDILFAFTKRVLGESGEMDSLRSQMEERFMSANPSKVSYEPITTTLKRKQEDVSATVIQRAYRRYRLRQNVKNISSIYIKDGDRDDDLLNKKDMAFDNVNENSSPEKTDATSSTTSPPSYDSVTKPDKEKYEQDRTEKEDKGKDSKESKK

With “1-[6-(4-fluorophenoxy)-1H-benzimidazol-1-yl]-2-methyl (1,1-^2H2) propan-2-ol [Example 1]” the “Inhibitory rate (%) of Na ion current” value [1] was 36%.

For “2-methyl-1-(6-{[5-(trifluoromethyl)pyridin-2-yl]oxy}-1H-benzimidazol-1-yl) (1,1-^2H2)propan-2-ol [Example 2]”, the “extension width of reaction thresholds (50% paw withdrawal threshold, after minus before administration)” value [2] was 5.0 g, the “Inhibitory rate (%) of Na ion current” value [1] was 36% and the “Rate of generating the metabolite product, human” value [3] was 0.026 pmol/min/mg protein. The “Rate of generating the metabolite product, rat” value [4] was 0.260 pmol/min/mg protein.

For “4-[6-(4-chlorophenoxy)-1H-benzimidazol-1-yl]-2-methyl(4,4-^2H2)butan-2-ol [Example 3]”, the “Inhibitory rate (%) of Na ion current” value [1] was 40%, the “Rate of generating the metabolite product, human” value [3] was 0.069 pmol/min/mg protein and the “Rate of generating the metabolite product, rat” value [4] was 0.40 pmol/min/mg protein.

Work on `[2H]C([2H])(n1cnc2ccc(Oc3ccc(OC(F)(F)F)cc3)cc21)C1(O)COC1` [Example 4, 3-[{6-[4-(trifluoromethoxy)phenoxy]-1H-benzimidazol-1-yl}(^2H2)methyl]oxetan-3-ol] yielded an inhibition at 10 µM [1] of 68%.

Work on `[2H]C([2H])(n1cnc2ccc(-c3ccc(C(F)(F)F)cc3OC)cc21)C1(O)COC1` [Example 5, 3-[{6-[2-methoxy-4-(trifluoromethyl)phenyl]-1H-benzimidazol-1-yl}(^2H2)methyl]oxetan-3-ol] yielded an inhibition at 10 µM [1] of 55%.

— patent publication US11066372B2, “Deuterated benzimidazole compound and medical use thereof” (Sumitomo Dainippon Pharma Co., Ltd., priority 2017, dated 2021)
